Assay results reported in patent US11969425B2, “Inhibitor of indoleamine-2,3-dioxygenase (IDO)” (InventisBio LLC, priority 2016, dated 2024).

Legend:
[1] = tested on: kynurenine production in HeLa cells; experiment: Inhibition of kynurenine production in HeLa cells; type: cell-based, human; details: Homo sapiens, HeLa, 48 h, HeLa cells, human IFN-γ 50 ng/mL, kynurenine read at 480 nm, read-out: IC50
Protocol: The effect of compounds described herein on the inhibition of kynurenine production in HeLa cells (derived from human cervical cancer) was determined. HeLa cells were seeded into a 96-well culture plate at a density of 5×10^3 per well in RPMI1640/phenol red free media (from GIBCO) with 2 mM L-glutamine and 10% fetal bovine serum (FBS, from GIBCO) and grown overnight in a 37° C. incubator with 5% CO2. Twenty-four hours later, human IFN-γ (from GIBCO) (final concentration 50 ng/mL) and test compound solutions (serially diluted to different wells) were added to each well with a final volume of 200 uL per well. Forty-eight hours after incubation with compounds, 140 uL supernatant was taken from each well and was transferred to a new 96-well plate. Ten microliters of 6.1 N trichloroacetic acid were added into each well, mixed and incubated at 50° C. for 30 minutes. The reaction mixture was then centrifuged for 10 minutes at 2500 rpm and 100 uL of the supernatant per well was transferred to another 96 well plate and mixed with 100 uL of 2% (w/v) p-dimethylaminobenzaldehyde in acetic acid. The yellow color derived from kynurenine was measured at 480 nm using a SPECTRAmax i3 reader. Each compound concentration was done in triplicates and compound IC50 value was calculated using nonlinear regression using Graphpad Prism 5.0.
The inhibitory activity of representative compounds described herein, compared with another IDO inhibitor, such as INCB-24360, Controls 1 and 2 are shown in Table 2.

[2] = Human hepatocyte clearance study; type: in vitro ADME; details: pooled cryopreserved human hepatocytes (suspension); for CLint scaled at 1 µM: human, scaled up from in vitro t1/2, scaling factor 2544.3, read-out: Human Scale-up Clint; for hepatocyte CLint at 1 µM / half-life at 1 µM: pooled human hepatocytes; for hepatocyte CLint at 1 µM: read-out: Human In vitro Clint (μL/min/10^6 cells); for half-life at 1 µM: read-out: Human In vitro T1/2
Protocol: (§1) The in vitro human hepatocyte clearance of compounds described here was studied using pooled human hepatocytes purchased from BioreclamationIVT (Westbury, NY, Cat #X008001, Lot #TQJ). The assay was conducted according to manufacture's instruction. Briefly, 10 mM stock solutions of test compounds and positive control (Verapamil) were prepared in 100% DMSO. Thawing media (50 mL) used in the study consists of: 31 mLWilliams E medium (GIBCO Cat #12551-032); 15 mL isotonic percoll (GE Healthcare Cat #17-0891-09); 500 uL 100XGlutaMax (GIBCO Cat #35050); 750 uL HEPES (GIBCO Cat #15630-080); 2.5 mL FBS (Corning Cat #35-076*CVR); 50 uL human insulin (GIBCO Cat #12585-014) and 5 uL dexamethasone (NICPBP). Incubation media is made of Williams E medium supplemented with 1xGlutaMax. Both thawing medium and incubation medium (serum-free) were placed in a 37° C. water bath for at least 15 minutes prior to use. Compound stock solutions were diluted to 100 μM by combining 198 μL of 50% acetonitrile/50% water and 2 μL of 10 mM stock solution. Verapamil was use as positive control in the assay. Vials of cryopreserved hepatocytes were removed from storage and thawed in a 37° C. water bath with gentle shaking. Contents of the vial were poured into the 50 mL thawing medium conical tube. Vials were centrifuged at 100 g for 10 minutes at room temperature. Thawing medium was aspirated and hepatocytes were re-suspended with serum-free incubation medium to yield ˜1.5×10^6 cells/mL. Hepatocyte viability and density were counted using a Trypan Blue exclusion, and then cells were diluted with serum-free incubation medium to a working cell density of 0.5×10^6 viable cells/mL. Then, a portion of the hepatocytes at 0.5×10^6 viable cells/mL was boiled for 5 minutes prior to adding to the plate as negative control to eliminate the enzymatic activity so that little or no substrate turnover should be observed. The boiled hepatocytes were used to prepare negative samples. Aliquots of 198 μL hepatocytes were dispensed into each well of a 96-well non-coated plate. The plate was placed in the incubator on an orbital shaker at 500 rpm for approximately 10 minutes. Aliquots of 2 μL of the 100 μM test compound or positive control were added into respective wells of the non-coated 96-well plate to start the reaction. This assay was performed in duplicate. The plate was incubated in the incubator on an orbital shaker at 500 rpm for the designated time points. Twenty-five microliter of contents were transferred and mixed with 6 volumes (150 μL) of cold acetonitrile with IS (200 nM imipramine, 200 nM labetalol and 200 nM diclofenac) to terminate the reaction at time points of 0, 15, 30, 60, 90 and 120 minutes. Samples were centrifuged at 3,220 g for 25 minutes and aliquots of 150 μL of the supernatants were used for LC-MS/MS analysis. For data analysis, all calculations were carried out using Microsoft Excel. Peak areas were determined from extracted ion chromatograms. The in vitro half-life (t1/2) of parent compound was determined by regression analysis of the percent parent disappearance vs. time curve. The in vitro half-life (in vitro t1/2) was determined from the slope value: in vitro t1/2=0.693/k. […] Scaling factors for in vivo intrinsic clearance prediction using human hepatocytes are listed as: liver weight (g liver/kg body weight): 25.7; hepatocyte concentration (10^6 cells/g liver): 99; scaling factor: 2544.3.

pooled human hepatocytes = experiment: Human hepatocyte clearance study; type: in vitro ADME; details: pooled human hepatocytes, 120 min
Protocol: as §1

[3] = tested on: T cells and HeLa cells co-culture; experiment: T cells and HeLa cells co-culture assay (IFN-gamma production); type: cell-based, human; details: Homo sapiens; CD3 T cells + HeLa cells, 72 hr, FIG. 4; read-out: EC50, production of IFN-gamma in the T cells and HeLa cells co-culture media
Protocol: HeLa cells were seeded into 96-well plate (5000 cells per well in 100 μL of cell growth media DMEM with 10% FBS and 1% pen/strep) and incubated at 37° C. with 5% CO2. After overnight incubation, 200 μL of INF-gamma (50 ng/ml in growth media) was added to the plate and returned to incubator for another 48 hr. SepMater™-50 centrifuge tube was used to isolate PBMC from human donor according to manufacture's instruction (Stemcell). The CD3 T cell was then isolated from the PBMC using EasySep Human T cell isolation kit (Stemcell). Wash the 96-well plat twice with 200 μL of co-culture media (RPMI-1640+10% FBS+1% Pen/strep). Adjust the CD3 T cells density to 5×10^5 cells/ml with high dose anti-CD3/CD28 beads and co-culture medium (RPMI-1640+10% FBS+1% Pen/strep) and seed 200 μL/well into 96-well plate. Compound at different concentration was added to each well and the plate was incubated for a further 72 hr. Level of INF-gamma in the co-culture media (100 μL) was analyzed using the Human IFN-gamma ELISA Ready-SET-GO kit from eBioscience.

Row | Structure (SMILES) | IC50 [1] [pM] | CLint scaled at 1 µM [2] [mL/min/kg] | hepatocyte CLint at 1 µM [2] [µL/min/1e6 cells] | half-life at 1 µM [2] [h] | Human Hepatocyte Remaining Percentage @ 120 min (pooled human hepatocytes) | EC50 [3] [pM]
1 | CC(C)CN(CC(C)C)c1ccc(C2(C(=O)O)CCC2)cc1NC(=O)Nc1ccc(F)cc1F [Compound 16] | 1500 | 1.8 | 0.7 | 31.4 | 101 | –
2 | CC(C)CN(c1ccc(C2(C(=O)O)CCC2)cc1NC(=O)Nc1ccc(F)cc1F)C1CCOCC1 [Compound 25] | 600 | 3.9 | 1.5 | 15 | 89 | –
3 | CC(C)CN(CC(C)C)c1ccc(C2(C(=O)O)CCCC2)cc1Nc1ccccc1 [Compound 48] | 8400 | 2 | 0.8 | 28.9 | 105 | –
4 | CCOc1ncc(Nc2cc(C3(C(=O)O)CCC3)ccc2N(CC(C)C)C2CCOCC2)cn1 [Compound 75] | 300 | 6.6 | 2.6 | 8.9 | 88 | –
5 | CC(C)CN(CC(C)C)c1ncc(C2(C(=O)O)CCC2)cc1Nc1ccc(Cl)cc1 [Compound 84] | 400 | 5.7 | 2.2 | 10.4 | 80 | –
6 | CC(C)CN(c1ccc(C2(C(=O)O)CCC2)cc1Nc1ccc(C#N)cn1)C1CCOCC1 [Compound 86] | 300 | 13 | 5.2 | 4.47 | 75 | –
7 | CC(C)CN(c1ncc(C2(C(=O)O)CCC2)cc1Nc1ccc(C#N)cc1)C1CCOCC1 [Compound 91] | 300 | 3.3 | 1.3 | 17.7 | 92 | –
8 | CC(C)CN(CC(C)C)c1ccc(C2(C(=O)O)CCC2)cc1Nc1ccc(Cl)cn1 [Compound 105] | 300 | 13 | 5.1 | 4.58 | 81 | –
9 | CC(C)CN(CC(C)C)c1ncc(C2(C(=O)O)CCC2)cc1Nc1ccc(C#N)cn1 [Compound 106] | 400 | 18 | 7 | 3.3 | 69 | –
10 | CC(C)CN(CC(C)C)c1ncc(C2(C(=O)O)CCC2)cc1Nc1ccc(Cl)cn1 [Compound 107] | 400 | 14 | 5.5 | 4.2 | 76 | –
11 | CC(C)N(CC1CC1)c1ncc(C2(C(=O)O)CCC2)cc1Nc1ccc(C#N)cn1 [Compound 110] | 1000 | 16 | 6.4 | 3.6 | 71 | –
12 | CC(C)N(CC1CC1)c1ncc(C2(C(=O)O)CCC2)cc1Nc1ccc(Cl)cn1 [Compound 111] | 800 | 20 | 7.7 | 2.98 | 63 | –
13 | CCN(c1ccc(C2(C(=O)O)CCC2)cc1Nc1ccc(Cl)cn1)C1CCOCC1 [Compound 115] | 100 | 9.3 | 3.6 | 6.35 | 83 | –
14 | CCOc1ncc(Nc2cc(C3(C(=O)O)CCC3)ccc2N(CC)C2CCOCC2)cn1 [Compound 117] | 900 | 1.7 | 0.7 | 35.4 | 93 | –
15 | CCN(c1ccc(C2(C(=O)O)CCC2)cc1Nc1ccc(C#N)cn1)C1CCOCC1 [Compound 118] | 200 | 8.5 | 3.3 | 6.93 | 85 | –
16 | CCN(c1ncc(C2(C(=O)O)CCC2)cc1Nc1ccc(Cl)cc1)C1CCOCC1 [Compound 120] | 100 | 3.5 | 1.4 | 17.1 | 94 | 9100
17 | CCN(c1ncc(C2(C(=O)O)CCC2)cc1Nc1ccc(Cl)cn1)C1CCOCC1 [Compound 123] | 300 | 3.7 | 1.4 | 16.1 | 100 | –
18 | CCN(c1ncc(C2(C(=O)O)CCC2)cc1Nc1ccc(C#N)cc1)C1CCOCC1 [Compound 125] | 500 | 2.2 | 0.9 | 26.6 | 97 | –
19 | CC(C)CN(CC(C)C)c1ccc(C(CC(=O)O)C(F)(F)F)cc1NC(=O)Nc1ccc(F)cc1F (stereo not drawn) [Control 1, 3-(3-(3-(2,4-difluorophenyl)ureido)-4-(diisobutylamino)phenyl)-4,4,4-trifluorobutanoic acid, reference compound] | 800 | 11 | 4.1 | 5.6 | 76 | –
